From PMC6686156, “Discovery of Sustainable Drugs for Neglected Tropical Diseases: Cashew Nut Shell Liquid (CNSL)‐Based Hybrids Target Mitochondrial Function and ATP Production in Trypanosoma brucei” (Chemmedchem, 2019)
Like-named read-outs stand apart in the source and are kept apart here.

Tests used:
Type in all cases: cell-based, Trypanosoma brucei brucei
[1] = tested on: T. b. brucei 427WT bloodstream trypomastigotes; test: microbe, parasite or virus in culture; conditions: for SI, selectivity index=EC50(HFF)/EC50(T. b. b. WT): HFF versus T. b. b. 427WT; for RF, resistance factor (+ 5 mM glycerol versus control): Table 2; for EC50: Trypanosoma brucei; for fold more active than compound 4: trypanocidal activity relative to parent compound 4
Description: (§1) Organisms and culture media: Only bloodstream trypomastigotes of T. b. brucei were used throughout this study. […] Parasites were cultured in vented flasks at 37 °C and 5 % CO2 atmosphere and they were passaged every 3 days. Bloodstream forms of T. congolense savannah‐type strain IL3000 were cultured in basal MEM medium, supplemented by 10 % fresh goat serum, 14 μL of β‐mercaptoethanol, 800 μL of 200 mM glutamine solution, and 10 mL of penicillin/streptomycin solution per liter of medium (pH 7.3).48 T. congolense were cultured in six‐well plates at 34 °C and 5 % CO2.
(§2) In brief, the assays were performed in 96‐well plates with 2×10^5 cells per well for T. b. brucei or 5×10^5 cells per well for T. congolense, in their respective culture media. First, 200 μL of test compounds’ solutions (400 μM, in T. brucei or T. congolense medium as appropriate) was added to the first well of each 12‐well row, from which doubling dilutions were conducted over one row per test compound. […] Fluorescence was detected using a FLUOstar Optima (BMG Labtech, Durham, NC, USA) at wavelength of 540 nm (excitation), 590 nm (emission). EC50 values were calculated by nonlinear regression using an equation for a sigmoidal dose–response curve with variable slope using Prism 5.0 (GraphPad Software Inc., San Diego, CA, USA).

T. b. brucei B48 = test: microbe, parasite or virus in culture; conditions: for RF, resistance factor relative to WT (B48): B48 versus 427WT; for EC50: Trypanosoma brucei, read-out: EC50 T. b. b. B48
Description: as §1, §2

[2] = tested on: T. b. brucei aqp2/aqp3‐KO; test: microbe, parasite or virus in culture; conditions: for EC50: Trypanosoma brucei, read-out: EC50 T. b. b. aqp2/aq3‐KO; for RF, resistance factor relative to WT (aqp2/aqp3-KO): aqp2/aqp3-KO versus 427WT
Description: as §1, §2

[3] = tested on: T. b. brucei 427WT trypomastigotes; test: Growth curve / time-to-kill determination; conditions: 1× EC50; over 48 h
Description: To determine whether 18–22 inhibited growth or cell division rather than causing cell death of T. b. brucei, cell growth curves were performed by treating 427WT trypomastigotes with concentrations corresponding to 0.5×, 1×, and 2× the EC50 value, using untreated cells as a control. Incubation with test compounds at half the EC50 (Figure 3 A) caused mostly some delayed growth phenotype, with rates increasing after 10 or 20 h. […] At double the concentration (Figure 3 C), all the hybrids cleared the culture between the 4 h and 8 h time points, with the cell populations rapidly declining between 2 and 4 h.
Untreated parasites, used as control, were grown in parallel. The cells were counted by using hemocytometer cell counter (cell count/mL×10^4) at 0, 2, 4, 8, 12, 24, 28, 32, 36, 48 h of incubation. Each experiment was performed as two independent replicates, and each sample was counted at least twice.

[4] = tested on: T. b. brucei 427WT bloodstream trypomastigotes; test: ATP assay on T. b. brucei (luciferin-luciferase); conditions: approximately 0.5×EC50; after 4–6 h
Description: ATP assay on T. b. brucei and HFF cells: Changes in cellular ATP levels due to the exposure of trypanosomes to the test compounds (0.5×EC50) were monitored using the Molecular Probes ATP Determination Kit (A22066, Invitrogen Detection Technologies), based on the luciferin–luciferase bioluminescent enzymatic reaction. Bloodstream trypomastigote cultures of T. brucei s427WT were incubated with and without test compound, and, at each predetermined incubation time, 10^7 cells of each sample were transferred into a microfuge tube and centrifuged at 2000×g for 10 min at 4 °C. The pellet was washed twice with 1 mL of 50 mM Tris⋅HCl (pH 7.4) containing 0.1 mM DTT, and then resuspended in 200 μL of the same buffer. The cells were lysed by sonication on ice (twice for 10 s separated by 30 s), using a Soniprep 150 (MSE) at 8 μm amplitude. The samples were centrifuged at 10 000×g for 10 min at 4 °C and the supernatant was collected, instantly frozen in liquid nitrogen, and stored at −80 °C. Oligomycin (2.0 μg mL^−1) was used as positive control. ATP levels were quantified using the contents of the kit following the manufacturer's instructions; 90 μL of standard reaction solution was added to each well of a 96‐well plate and the background luminescence was recorded in a FLUOstar OPTIMA fluorimeter; 10 μL of each sample was then added to each well. The plate was incubated at 28 °C for 15 min and the luminescence was measured, including a standard curve with an ATP concentration ranging from 1 nM to 1 μM to allow the calculation of the ATP concentrations in each sample. The ATP content was measured at 0, 0.5, 1, 2, 4, 8 and 12 h of incubation with test sample.

[5] = tested on: T. b. brucei 427WT trypomastigotes; test: Reactive oxygen species (ROS) assay (DCFH-DH); conditions: incubation up to 2 h, multiples of EC50
Description: Reactive oxygen species (ROS) assay on T. b. brucei: The production of ROS when T. b. brucei 427WT trypomastigotes incubated with different concentration (2.5×EC50; 1.25×EC50; 0.3×EC50) of test compound was assessed using the indicator dye 2,7‐dichlorodihydrofluorescein diacetate (DCFH‐DH; Sigma–Aldrich). This assay was performed in a 96‐well black‐bottomed well plate; 200 μL of each test compound solution, at 5×EC50 in assay buffer pH 7.3, was added to the well in the first column of the plate and doubling dilutions were carried out across the row, after which 3×10^6 cell in 100 μL of assay buffer were added to each well, immediately followed by 2 μL of 1 mM DCFH‐DH, under minimal light conditions. The plates were incubated in a FLUOstar OPTIMA fluorimeter at 37 °C 5 % CO2 and the fluorescence was monitored at 485 nm for the excitation, 520 nm for the emission for 3 h, taking readings of each well every 2 min. Three wells were included in the plate as controls: 1) 3×10^6 cells per well in assay buffer without test compound; 2) 3×10^6 cells per well in assay buffer with 2 μL of 10 mM H2O2; 3) assay buffer without cells and test compound.

T. b. brucei ISMR1 = test: In vitro drug susceptibility assay (resazurin), dyskinetoplastic ISMR1 strain; conditions: isometamidium-resistant line
Description: as §1, §2

[6] = 72 h, bloodstream trypomastigotes, resazurin, 48 h + 24 h, n=4, read-out: EC50 T. b. b. 427WT
[7] = Table 2, 5 mM glycerol in medium, average±SEM of three, read-out: EC50 s427WT + 5 mM glycerol
[8] = Table 2, no glycerol, average±SEM of three, read-out: EC50 Control s427WT

| Compound | SI, selectivity index=EC50(HFF)/EC50(T. b. b. WT) [1] | RF, resistance factor (+ 5 mM glycerol versus control) [1] | EC50 [1, 6] [µM] | EC50 [1, 7] [µM] | EC50 [1, 8] [µM] | fold more active than compound 4 [1] | RF, resistance factor relative to WT (B48) (T. b. brucei B48) | EC50 (T. b. brucei B48) [µM] | EC50 [2] [µM] | RF, resistance factor relative to WT (aqp2/aqp3-KO) [2] | effect on cell growth [3] | ATP content, % of untreated [ATP] [4] | ROS production [5] | EC50 in ISMR1 relative to 427WT tested in parallel (T. b. brucei ISMR1) |
| --- | --- | --- | --- | --- | --- | --- | --- | --- | --- | --- | --- | --- | --- | --- |
| O=C1C(Oc2cccc(CCCCCCCCO)c2)=CC(=O)c2c(O)cccc21 [Compound 22, 5‐Hydroxy‐2‐(3‐(8‐hydroxyoctyl)phenoxy)naphthalene‐1,4‐dione] | >26.3 | 1.11 | 7.6 ± 0.7 | 28.2 ± 0.2 | 25.4 ± 1 | up to 10 fold | 0.91 | 6.8 ± 0.1 | 7.3 ± 0.5 | 0.96 | killed only a proportion of the cell population before stabilizing | approximately 50% | dose‐dependently increased | did not show a significant increase in the EC50 values |
| COc1cccc2c1C(=O)C=C(Oc1cccc(CCCCCCCCO)c1)C2=O [Compound 20, 2‐(3‐(8‐Hydroxyoctyl)phenoxy)‐5‐methoxynaphthalene‐1,4‐dione] | >40 | 1.74 | 5 ± 0.3 | 16 ± 0.2 | 9.2 ± 0.04 | up to 10 fold | 1.1 | 5.3 ± 0.8 | 6.2 ± 0.58 | 1.2 | decreased the growth rate substantially, with a nearly trypanostatic effect over the first 12 h | approximately 50% | dose‐dependently increased | did not show a significant increase in the EC50 values |
